Laboratory results reported in patent US20090131354A1, “miR-126 REGULATED GENES AND PATHWAYS AS TARGETS FOR THERAPEUTIC INTERVENTION” (priority 2007, published 2009).

Tested on: A549 cells
Experiment: mRNA array gene expression analysis after transfection
Format: cell-based, human
Conditions: A549, 30 nM

In the case of “hsa-miR-126 (UCGUACCGUGAGUAAUAAUGC; synthetic pre-miR form, further chemistry not given here) [Synthetic hsa-miR-126 (Pre-miR™-hsa-miR-126, Ambion cat. no. AM17100)]”, the “Δ log2 LBA1 mRNA” value is reported as 1.07 log2, the “Δ log2 LCN2 mRNA” value is reported as 1.032 log2 and the “Δ log2 LOC93349 mRNA” value is reported as 1.021 log2. The “Δ log2 LOC257407 mRNA” value was 1.211 log2, the “Δ log2 LRP12 mRNA” value was −2.094 log2 and the “Δ log2 LXN mRNA” value was 1.017 log2. The “Δ log2 M6PRBP1 mRNA” value was −1.074 log2, the “Δ log2 MAP1B mRNA” value was −0.706 log2 and the “Δ log2 MAP3K1 mRNA” value was 1.609 log2. The “Δ log2 MAPK6 mRNA” value was −0.81 log2, the “Δ log2 MASK mRNA” value was −1.4 log2 and the “Δ log2 MAWBP mRNA” value was 1.126 log2. For the same substance, the “Δ log2 MAZ mRNA” value was −1.133 log2, the “Δ log2 MCL1 mRNA” value was 1.394 log2 and the “Δ log2 MET mRNA” value was −0.9508 log2. For the same substance, the “Δ log2 MICAL2 mRNA” value was −1.182 log2, the “Δ log2 MMP7 mRNA” value was 1.127 log2 and the “Δ log2 MR1 mRNA” value was 0.702 log2. The “Δ log2 MTUS1 mRNA” value was 0.7009 log2, the “Δ log2 MYBL1 mRNA” value was −1.008 log2 and the “Δ log2 NAB1 mRNA” value was −0.7242 log2. The “Δ log2 NCF2 mRNA” value was −0.8706 log2, the “Δ log2 NEK4 mRNA” value was −1.197 log2 and the “Δ log2 NF1 mRNA” value was −1.383 log2. The “Δ log2 NF2 mRNA” value was −0.8288 log2, the “Δ log2 NID1 mRNA” value was 0.8833 log2 and the “Δ log2 NPTX1 mRNA” value was −1.204 log2. For the same substance, the “Δ log2 NR1H4 mRNA” value was 1.063 log2, the “Δ log2 NR2F1 mRNA” value was 0.8754 log2 and the “Δ log2 NR4A2 mRNA” value was 1.19 log2. For the same substance, the “Δ log2 NRIP1 mRNA” value was 0.7196 log2, the “Δ log2 NUCKS mRNA” value was 2.05 log2 and the “Δ log2 OLFML3 mRNA” value was −1.333 log2. The “Δ log2 OXTR mRNA” value was −1.374 log2, the “Δ log2 PCAF mRNA” value was −1.071 log2 and the “Δ log2 PDCD4 mRNA” value was 1.094 log2. The “Δ log2 PDK4 mRNA” value was 1.686 log2, the “Δ log2 PDXK mRNA” value was −1.142 log2 and the “Δ log2 PDZK1IP1 mRNA” value was 0.8906 log2. The “Δ log2 PEX10 mRNA” value was −0.7177 log2, the “Δ log2 PGK1 mRNA” value was 1.563 log2 and the “Δ log2 PHACTR2 mRNA” value was 0.8791 log2. The “Δ log2 PHTF2 mRNA” value was −1.334 log2, the “Δ log2 PLA1A mRNA” value was 1.623 log2 and the “Δ log2 PLA2G4A mRNA” value was 0.8899 log2. For the same substance, the “Δ log2 PLCB1 mRNA” value was 1.421 log2, the “Δ log2 PLEC1 mRNA” value was −0.9035 log2 and the “Δ log2 PLK1 mRNA” value was −0.7295 log2. For the same substance, the “Δ log2 PLOD2 mRNA” value was −1.204 log2, the “Δ log2 PMCH mRNA” value was 0.9697 log2 and the “Δ log2 PMM1 mRNA” value was −1.034 log2. The “Δ log2 PPP3CB mRNA” value was −1.185 log2, the “Δ log2 PRKCA mRNA” value was −1.083 log2 and the “Δ log2 PRO1843 mRNA” value was 1.386 log2. For the same substance, the “Δ log2 PROS1 mRNA” value was 1.021 log2, the “Δ log2 PSME3 mRNA” value was −0.8427 log2 and the “Δ log2 PTENP1 mRNA” value was 0.8904 log2. The “Δ log2 PTK9 mRNA” value was 1.028 log2, the “Δ log2 PTP4A1 mRNA” value was 0.7259 log2 and the “Δ log2 PXN mRNA” value was −0.8029 log2. For the same substance, the “Δ log2 Pfs2 mRNA” value was −0.7674 log2, the “Δ log2 QDPR mRNA” value was −1.048 log2 and the “Δ log2 QKI mRNA” value was 0.7094 log2. For the same substance, the “Δ log2 RAB2 mRNA” value was 1.459 log2, the “Δ log2 RAB11FIP2 mRNA” value was −0.8417 log2 and the “Δ log2 RAB40B mRNA” value was 1.166 log2. For the same substance, the “Δ log2 RABL2B /// RABL2A mRNA” value was −0.8805 log2, the “Δ log2 RAFTLIN mRNA” value was 0.9753 log2 and the “Δ log2 RARRES1 mRNA” value was 1.523 log2. For the same substance, the “Δ log2 RARRES3 mRNA” value was 1.399 log2, the “Δ log2 RASSF2 mRNA” value was −1.355 log2 and the “Δ log2 RBP4 mRNA” value was 1.037 log2. The “Δ log2 RGC32 mRNA” value was 1.701 log2, the “Δ log2 RHEB mRNA” value was 1.113 log2 and the “Δ log2 RHOB mRNA” value was −1.015 log2. The “Δ log2 RHOBTB1 mRNA” value was 1.197 log2, the “Δ log2 RIG mRNA” value was 0.9993 log2 and the “Δ log2 RIP mRNA” value was 1.299 log2. The “Δ log2 RNASE4 mRNA” value was 1.351 log2, the “Δ log2 RNF14 mRNA” value was −1.293 log2 and the “Δ log2 RPL14 mRNA” value was 0.7937 log2. For the same substance, the “Δ log2 RPL38 mRNA” value was 1.084 log2, the “Δ log2 RPS11 mRNA” value was 1.097 log2 and the “Δ log2 RRAGD mRNA” value was 1.193 log2. For the same substance, the “Δ log2 SCARB2 mRNA” value was 0.9635 log2, the “Δ log2 SCML1 mRNA” value was 0.9483 log2 and the “Δ log2 SDC1 mRNA” value was −0.9726 log2. For the same substance, the “Δ log2 SDC4 mRNA” value was −1.316 log2, the “Δ log2 SEC24A mRNA” value was 0.7724 log2 and the “Δ log2 SELENBP1 mRNA” value was 1.193 log2. The “Δ log2 SEPP1 mRNA” value was 2.014 log2, the “Δ log2 SEPT9 mRNA” value was −0.7282 log2 and the “Δ log2 SERPINA6 mRNA” value was 1.032 log2. For the same substance, the “Δ log2 SERPINE1 mRNA” value was −1.338 log2, the “Δ log2 SF3B4 mRNA” value was −1.044 log2 and the “Δ log2 SGPL1 mRNA” value was −1.59 log2. For the same substance, the “Δ log2 SGPP1 mRNA” value was −1.773 log2, the “Δ log2 SH3YL1 mRNA” value was 1.026 log2 and the “Δ log2 SLC2A3 mRNA” value was 0.7467 log2. For the same substance, the “Δ log2 SLC3A2 mRNA” value was −1.221 log2, the “Δ log2 SLC4A4 mRNA” value was −1.661 log2 and the “Δ log2 SLC4A7 mRNA” value was −0.9064 log2. The “Δ log2 SLC7A5 mRNA” value was −1.958 log2, the “Δ log2 SLC7A11 mRNA” value was −0.721 log2 and the “Δ log2 SLC26A2 mRNA” value was −1.615 log2. The “Δ log2 SLC35D1 mRNA” value was −1.443 log2, the “Δ log2 SLC39A6 mRNA” value was −2.468 log2 and the “Δ log2 SMARCA2 mRNA” value was 0.8119 log2. For the same substance, the “Δ log2 SMTN mRNA” value was −1.071 log2, the “Δ log2 SNRPD1 mRNA” value was −0.7027 log2 and the “Δ log2 SOCS2 mRNA” value was −0.7193 log2. For the same substance, the “Δ log2 SORBS3 mRNA” value was −1.106 log2, the “Δ log2 SPFH2 mRNA” value was 0.9346 log2 and the “Δ log2 SRD5A1 mRNA” value was −0.9713 log2. The “Δ log2 STC1 mRNA” value was 0.8696 log2, the “Δ log2 STK24 mRNA” value was −1.021 log2 and the “Δ log2 STX3A mRNA” value was 0.7983 log2. The “Δ log2 SUMO2 mRNA” value was 0.9996 log2, the “Δ log2 TAGLN mRNA” value was −0.9221 log2 and the “Δ log2 TARDBP mRNA” value was −1.05 log2. For the same substance, the “Δ log2 TFG mRNA” value was 0.9981 log2, the “Δ log2 TFPI mRNA” value was 1.003 log2 and the “Δ log2 TGFBR2 mRNA” value was 1.068 log2. The “Δ log2 TGFBR3 mRNA” value was 1.082 log2, the “Δ log2 THBS1 mRNA” value was −0.9922 log2 and the “Δ log2 TJP2 mRNA” value was 0.8301 log2. For the same substance, the “Δ log2 TLR3 mRNA” value was 1.096 log2, the “Δ log2 TM4SF20 mRNA” value was 0.9319 log2 and the “Δ log2 TNFAIP6 mRNA” value was −1.542 log2. For the same substance, the “Δ log2 TNFRSFI2A mRNA” value was −1.07 log2, the “Δ log2 TNFSF10 mRNA” value was 1.066 log2 and the “Δ log2 TNRC9 mRNA” value was 0.8141 log2. For the same substance, the “Δ log2 TNS1 mRNA” value was 1.235 log2, the “Δ log2 TP73L mRNA” value was 0.7602 log2 and the “Δ log2 TRA1 mRNA” value was 1.982 log2. The “Δ log2 TRIM14 mRNA” value was −1.157 log2, the “Δ log2 TRIM22 mRNA” value was 1.379 log2 and the “Δ log2 TSC mRNA” value was 1.372 log2. The “Δ log2 TSPAN7 mRNA” value was 0.8049 log2, the “Δ log2 TSPAN8 mRNA” value was 1.266 log2 and the “Δ log2 TTC3 mRNA” value was 0.7079 log2. The “Δ log2 TUBB2 /// TUBB-PARALOG mRNA” value was −0.904 log2, the “Δ log2 TXN mRNA” value was 1.543 log2 and the “Δ log2 TncRNA” value was 1.613 log2. The “Δ log2 UAP1 mRNA” value was −1.613 log2, the “Δ log2 UBE2L6 mRNA” value was 0.9119 log2 and the “Δ log2 UPK1B mRNA” value was −1.042 log2. For the same substance, the “Δ log2 VDAC1 mRNA” value was −1.181 log2, the “Δ log2 VDAC3 mRNA” value was 1.063 log2 and the “Δ log2 VIL2 mRNA” value was 0.7604 log2. For the same substance, the “Δ log2 WDR1 mRNA” value was −0.8373 log2, the “Δ log2 WDR41 mRNA” value was −1.49 log2 and the “Δ log2 WEE1 mRNA” value was 0.8892 log2. The “Δ log2 WNT7B mRNA” value was −1.114 log2, the “Δ log2 XM_371853 (gene symbol —) mRNA” value was 0.9326 log2 and the “Δ log2 XTP2 mRNA” value was 0.9083 log2. For the same substance, the “Δ log2 YKT6 mRNA” value was −1.176 log2, the “Δ log2 YOD1 mRNA” value was 0.869 log2 and the “Δ log2 YTHDF3 mRNA” value was −0.9397 log2. For the same substance, the “Δ log2 ZNF467 mRNA” value was 1.211 log2.
